For assay [1], the target named is Glutamate receptor 2 (Rattus norvegicus, UniProt P19491). The assay is described as follows: biochemical.
The target in assay [2] is Glutamate receptor 3 (Rattus norvegicus, UniProt P19492). Put plainly: biochemical.
The target in assay [3] is Glutamate receptor 4 (Rattus norvegicus, UniProt P19493). The assay is described as follows: biochemical.
Assay [4] has as its target T1, Glutamate receptor 1 (Homo sapiens, UniProt P42261). Put plainly: Agonist activity at GluA1 receptor (unknown origin) expressed in HEK293 cells assessed induction of S-glutamate-induced calcium flux at 300 uM measured after 90 secs in presence of cyclothiazide by Fluo4-AM dye-based fluorescence assay relative to S-glutamate. Format: cell-based. Background: Calcium assays in cells follow changes in intracellular calcium, usually with a dye or a luminescent sensor.

Assay [5] addresses T2, Glutamate receptor 3 (Homo sapiens, UniProt P42263). The assay is described as follows: Agonist activity at GluA3 receptor (unknown origin) expressed in HEK293 cells assessed induction of S-glutamate-induced calcium flux at 300 uM measured after 90 secs in presence of cyclothiazide by Fluo4-AM dye-based fluorescence assay relative to S-glutamate. Format: cell-based.
For assay [6], the target named is T3, Glutamate receptor 4 (Homo sapiens, UniProt P48058).
Assay [7] addresses T4, Ionotropic glutamate receptor NMDA 1/2D (Rattus norvegicus, UniProt P35439+Q62645).
Assay [8] concerns the target T5, Ionotropic glutamate receptor NMDA 1/2D (Rattus norvegicus) (UniProt P35439+Q62645). The assay is described as follows: Agonist activity at recombinant rat GluN1a/GluN2D expressed in Xenopus laevis oocytes at 100 uM at -40 mV holding potential by two-electrode voltage clamp electrophysiology method. The format is cell-based. (In general: Two-electrode voltage clamp holds a large cell at a set potential and records current.)

The target in assay [9] is T4, Ionotropic glutamate receptor NMDA 1/2D. The source holds these as a separate data set.
The target in assay [10] is T6, Glutamate NMDA receptor; Grin1/Grin2a (Rattus norvegicus) (UniProt P35439+Q00959). The assay is described as follows: Agonist activity at recombinant rat GluN1a/GluN2A expressed in Xenopus laevis oocytes at 100 uM at -40 mV holding potential by two-electrode voltage clamp electrophysiology method. Format: cell-based.
Assay [11] deals with T5, Ionotropic glutamate receptor NMDA 1/2D (Rattus norvegicus). Put plainly: Agonist activity at recombinant rat GluN1a/GluN2D expressed in Xenopus laevis oocytes at -40 mV holding potential in presence of glutamate by two-electrode voltage clamp electrophysiology method relative to control. The format is cell-based.
Assay [12] deals with T7, Glutamate NMDA receptor; Grin1/Grin2b (Rattus norvegicus) (UniProt P35439+Q00960). Put plainly: Agonist activity at recombinant rat GluN1a/GluN2B expressed in Xenopus laevis oocytes at 300 uM at -40 mV holding potential in presence of glutamate by two-electrode voltage clamp electrophysiology method relative to control. The format is cell-based.
For assay [13], the target named is T6, Glutamate NMDA receptor; Grin1/Grin2a (Rattus norvegicus). The assay is described as follows: Agonist activity at recombinant rat GluN1a/GluN2A expressed in Xenopus laevis oocytes at 300 uM at -40 mV holding potential in presence of glutamate by two-electrode voltage clamp electrophysiology method relative to control. Format: cell-based.
In assay [14] the target is Glutamate receptor ionotropic, AMPA (Rattus norvegicus, UniProt P19490+P19491+P19492+P19493).
Assay [15] has as its target T8, Glutamate NMDA receptor; Grin1/Grin2c (Rattus norvegicus) (UniProt P35439+Q00961). Put plainly: Agonist activity at recombinant rat GluN1a/GluN2C expressed in Xenopus laevis oocytes at 100 uM at -40 mV holding potential by two-electrode voltage clamp electrophysiology method. The format is cell-based.
Assay [16] addresses T8, Glutamate NMDA receptor; Grin1/Grin2c (Rattus norvegicus). Put plainly: Agonist activity at recombinant rat GluN1a/GluN2C expressed in Xenopus laevis oocytes at -40 mV holding potential in presence of glutamate by two-electrode voltage clamp electrophysiology method relative to control. The format is cell-based.
The target of assay [17] is T6, Glutamate NMDA receptor; Grin1/Grin2a (Rattus norvegicus). The assay is described as follows: Agonist activity at recombinant rat GluN1a/GluN2A expressed in Xenopus laevis oocytes at 300 uM at -40 mV holding potential in presence of glycine by two-electrode voltage clamp electrophysiology method relative to glycine. The format is cell-based.
The target of assay [18] is T7, Glutamate NMDA receptor; Grin1/Grin2b (Rattus norvegicus). The assay is described as follows: Agonist activity at recombinant rat GluN1a/GluN2B expressed in Xenopus laevis oocytes at 100 uM at -40 mV holding potential by two-electrode voltage clamp electrophysiology method. Format: cell-based.
For assay [19], the target named is T5, Ionotropic glutamate receptor NMDA 1/2D (Rattus norvegicus). Put plainly: Agonist activity at recombinant rat GluN1a/GluN2D expressed in Xenopus laevis oocytes at -40 mV holding potential in presence of glycine by two-electrode voltage clamp electrophysiology method relative to glycine. The format is cell-based.
The target in assay [20] is T2, Glutamate receptor 3.
Assay [21] concerns the target T1, Glutamate receptor 1.
Assay [22] concerns the target Glutamate receptor 2 (Homo sapiens, UniProt P42262).
Assay [23] addresses Glutamate NMDA receptor.
Assay [24] addresses Glutamate receptor 1 (Rattus norvegicus, UniProt P19490). Put plainly: biochemical.
The target of assay [25] is T3, Glutamate receptor 4. The assay is described as follows: Agonist activity at GluA4 receptor (unknown origin) expressed in HEK293 cells assessed induction of S-glutamate-induced calcium flux at 1000 uM measured after 90 secs in presence of cyclothiazide by Fluo4-AM dye-based fluorescence assay relative to S-glutamate. Format: cell-based.

Molecules are shown by their SMILES. Active and inactive are the calls of the source. The calls are words filed in the database; no cut-off is given here. Where only a bound is given, the exact number is not on record here.

T3 sequence (P48058 whole entry): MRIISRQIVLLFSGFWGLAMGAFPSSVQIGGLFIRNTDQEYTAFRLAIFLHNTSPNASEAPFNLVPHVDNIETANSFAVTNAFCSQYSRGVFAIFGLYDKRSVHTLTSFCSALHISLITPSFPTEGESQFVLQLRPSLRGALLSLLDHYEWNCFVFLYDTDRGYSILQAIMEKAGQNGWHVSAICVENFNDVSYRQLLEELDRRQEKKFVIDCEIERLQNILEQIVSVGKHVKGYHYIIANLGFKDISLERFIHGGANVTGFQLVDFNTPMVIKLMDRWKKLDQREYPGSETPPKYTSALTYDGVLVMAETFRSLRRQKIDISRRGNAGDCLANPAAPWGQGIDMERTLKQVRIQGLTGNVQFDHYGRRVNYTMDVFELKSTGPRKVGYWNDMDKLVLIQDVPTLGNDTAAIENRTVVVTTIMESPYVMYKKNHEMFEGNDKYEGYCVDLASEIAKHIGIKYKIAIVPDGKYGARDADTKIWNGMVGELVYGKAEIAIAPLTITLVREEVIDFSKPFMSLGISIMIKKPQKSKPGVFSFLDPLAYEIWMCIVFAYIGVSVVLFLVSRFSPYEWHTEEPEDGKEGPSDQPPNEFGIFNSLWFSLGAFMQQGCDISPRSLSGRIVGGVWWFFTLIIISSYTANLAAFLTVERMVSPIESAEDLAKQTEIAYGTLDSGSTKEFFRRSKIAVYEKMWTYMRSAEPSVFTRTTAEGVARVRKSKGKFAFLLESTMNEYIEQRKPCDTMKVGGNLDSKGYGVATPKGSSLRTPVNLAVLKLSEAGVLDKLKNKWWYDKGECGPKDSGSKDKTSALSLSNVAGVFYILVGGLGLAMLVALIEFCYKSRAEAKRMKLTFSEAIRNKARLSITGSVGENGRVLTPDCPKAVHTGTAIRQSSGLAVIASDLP
T1 sequence (P42261 whole entry): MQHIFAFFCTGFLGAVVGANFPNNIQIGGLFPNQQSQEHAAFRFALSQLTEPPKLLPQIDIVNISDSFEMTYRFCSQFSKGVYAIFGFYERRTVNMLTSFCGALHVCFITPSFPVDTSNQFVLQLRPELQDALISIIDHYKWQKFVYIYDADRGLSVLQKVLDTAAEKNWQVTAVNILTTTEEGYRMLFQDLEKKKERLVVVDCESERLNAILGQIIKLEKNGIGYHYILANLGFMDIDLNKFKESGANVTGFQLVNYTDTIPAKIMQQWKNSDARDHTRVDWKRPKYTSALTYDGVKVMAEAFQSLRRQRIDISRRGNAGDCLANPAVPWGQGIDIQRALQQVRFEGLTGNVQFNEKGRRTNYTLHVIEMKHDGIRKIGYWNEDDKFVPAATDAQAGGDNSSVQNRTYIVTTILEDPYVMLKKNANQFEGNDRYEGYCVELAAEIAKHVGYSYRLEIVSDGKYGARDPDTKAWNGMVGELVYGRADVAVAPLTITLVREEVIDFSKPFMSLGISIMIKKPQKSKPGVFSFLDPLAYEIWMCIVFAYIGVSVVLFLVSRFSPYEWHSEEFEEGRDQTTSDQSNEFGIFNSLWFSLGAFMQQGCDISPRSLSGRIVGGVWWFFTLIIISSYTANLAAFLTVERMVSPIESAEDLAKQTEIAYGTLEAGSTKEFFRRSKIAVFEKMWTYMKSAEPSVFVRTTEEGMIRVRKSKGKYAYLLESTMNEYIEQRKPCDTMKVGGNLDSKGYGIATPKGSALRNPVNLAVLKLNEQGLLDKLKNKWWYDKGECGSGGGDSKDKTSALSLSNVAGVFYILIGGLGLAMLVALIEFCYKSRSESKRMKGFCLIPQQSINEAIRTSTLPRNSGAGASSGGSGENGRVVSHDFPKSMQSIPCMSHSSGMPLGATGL
Chain of Glutamate receptor 2 (Rattus norvegicus, UniProt P19491) (P19491 whole entry): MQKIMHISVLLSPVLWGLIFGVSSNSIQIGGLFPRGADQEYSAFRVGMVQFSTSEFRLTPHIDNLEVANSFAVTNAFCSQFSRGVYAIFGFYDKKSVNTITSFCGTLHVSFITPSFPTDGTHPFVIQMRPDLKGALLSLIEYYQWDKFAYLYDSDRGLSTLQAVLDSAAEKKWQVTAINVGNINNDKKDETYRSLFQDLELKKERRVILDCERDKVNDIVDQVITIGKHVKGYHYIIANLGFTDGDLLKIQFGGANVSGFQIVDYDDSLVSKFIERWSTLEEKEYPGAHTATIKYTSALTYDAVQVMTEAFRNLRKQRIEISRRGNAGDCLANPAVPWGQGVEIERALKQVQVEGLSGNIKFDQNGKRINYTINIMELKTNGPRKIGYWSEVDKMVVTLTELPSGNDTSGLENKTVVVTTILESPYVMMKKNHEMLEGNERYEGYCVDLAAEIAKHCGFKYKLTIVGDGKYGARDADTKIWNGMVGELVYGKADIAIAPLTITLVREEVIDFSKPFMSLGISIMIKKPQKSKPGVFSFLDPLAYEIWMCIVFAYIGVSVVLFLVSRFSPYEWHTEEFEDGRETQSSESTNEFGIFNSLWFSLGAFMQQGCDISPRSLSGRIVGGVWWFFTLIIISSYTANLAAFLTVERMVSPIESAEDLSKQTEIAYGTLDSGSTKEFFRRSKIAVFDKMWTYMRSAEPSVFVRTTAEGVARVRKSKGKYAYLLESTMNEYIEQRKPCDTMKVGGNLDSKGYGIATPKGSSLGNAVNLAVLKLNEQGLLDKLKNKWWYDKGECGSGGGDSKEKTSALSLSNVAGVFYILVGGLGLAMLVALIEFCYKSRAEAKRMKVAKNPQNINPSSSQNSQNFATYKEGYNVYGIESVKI
Chain of Glutamate receptor 3 (Rattus norvegicus, UniProt P19492) (P19492 whole entry): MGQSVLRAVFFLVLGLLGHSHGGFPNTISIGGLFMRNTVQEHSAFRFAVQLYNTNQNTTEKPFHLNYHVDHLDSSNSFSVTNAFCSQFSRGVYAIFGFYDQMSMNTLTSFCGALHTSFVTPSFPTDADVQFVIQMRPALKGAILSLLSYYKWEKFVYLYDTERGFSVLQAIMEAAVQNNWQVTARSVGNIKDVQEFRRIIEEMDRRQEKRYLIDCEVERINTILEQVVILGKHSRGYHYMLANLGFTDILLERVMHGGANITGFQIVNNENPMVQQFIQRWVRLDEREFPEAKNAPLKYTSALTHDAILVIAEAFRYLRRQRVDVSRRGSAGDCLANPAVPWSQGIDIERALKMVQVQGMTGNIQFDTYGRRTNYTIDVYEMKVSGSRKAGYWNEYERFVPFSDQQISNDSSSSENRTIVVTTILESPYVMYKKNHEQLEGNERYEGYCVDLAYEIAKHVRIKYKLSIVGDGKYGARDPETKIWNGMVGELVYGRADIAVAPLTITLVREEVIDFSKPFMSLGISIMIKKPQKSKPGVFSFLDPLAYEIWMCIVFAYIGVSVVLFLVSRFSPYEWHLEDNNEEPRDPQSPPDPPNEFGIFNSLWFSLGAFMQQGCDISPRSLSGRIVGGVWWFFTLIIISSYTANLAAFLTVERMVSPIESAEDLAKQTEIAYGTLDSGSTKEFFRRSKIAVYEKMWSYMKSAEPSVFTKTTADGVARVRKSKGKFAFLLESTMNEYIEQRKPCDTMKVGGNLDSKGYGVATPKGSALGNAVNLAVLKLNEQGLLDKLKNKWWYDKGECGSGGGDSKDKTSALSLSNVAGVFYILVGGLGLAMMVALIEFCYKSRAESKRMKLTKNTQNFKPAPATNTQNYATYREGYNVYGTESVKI
T2 sequence (P42263 whole entry): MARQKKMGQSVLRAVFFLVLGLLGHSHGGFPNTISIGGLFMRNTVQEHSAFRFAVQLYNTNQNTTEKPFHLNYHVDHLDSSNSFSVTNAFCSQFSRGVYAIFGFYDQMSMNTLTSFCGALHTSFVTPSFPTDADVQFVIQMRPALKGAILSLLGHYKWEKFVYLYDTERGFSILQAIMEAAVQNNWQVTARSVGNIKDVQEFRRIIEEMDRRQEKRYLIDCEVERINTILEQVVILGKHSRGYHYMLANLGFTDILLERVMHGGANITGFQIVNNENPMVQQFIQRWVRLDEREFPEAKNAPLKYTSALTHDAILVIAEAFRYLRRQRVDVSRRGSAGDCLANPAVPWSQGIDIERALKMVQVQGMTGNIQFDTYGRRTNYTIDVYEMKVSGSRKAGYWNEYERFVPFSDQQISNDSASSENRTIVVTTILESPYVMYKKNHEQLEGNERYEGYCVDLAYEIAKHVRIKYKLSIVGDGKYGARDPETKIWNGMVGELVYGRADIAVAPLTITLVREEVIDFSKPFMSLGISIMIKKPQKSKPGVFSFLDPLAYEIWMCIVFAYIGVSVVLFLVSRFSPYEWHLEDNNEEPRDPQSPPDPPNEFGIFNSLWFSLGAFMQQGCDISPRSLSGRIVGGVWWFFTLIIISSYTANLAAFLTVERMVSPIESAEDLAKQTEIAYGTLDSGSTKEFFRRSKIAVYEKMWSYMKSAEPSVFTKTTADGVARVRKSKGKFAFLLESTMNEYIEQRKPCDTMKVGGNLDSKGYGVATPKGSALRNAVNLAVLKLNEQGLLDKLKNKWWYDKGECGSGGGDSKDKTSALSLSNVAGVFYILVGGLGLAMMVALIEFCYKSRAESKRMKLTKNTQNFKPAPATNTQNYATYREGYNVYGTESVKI
Chain of Glutamate receptor 2 (Homo sapiens, UniProt P42262) (P42262 whole entry): as the sequence (P19491 whole entry) above, with T191M, A291T, G764R, P852A counted along it

Take `Cn1nnc(-c2onc(O)c2CC(N)C(=O)O)n1` (centres undefined): the Ki – broadly, a measure of affinity in units of concentration, obtained from inhibition or displacement – worked out at 3.9 nM in assay [1], 0.0022 µM in assay [2] and 0.0027 µM in assay [3].
Turning to `Cn1nnc(O)c1CC(N)C(=O)O` (racemic), the %max in assay [4] and in assay [5] was greater than 5% each time. Also, in assay [1], the affinity corresponds to a Ki of 1870 nM. Also, the EC50 – broadly, the concentration giving half of the maximal effect – in [6] was 56.2 µM.
As to `Cn1nc(O)c(C(N)C(=O)O)n1` (racemic), the EC50 in assay [7] stood at 58 µM; in [9], 35 µM. The result in assay [8], in assay [15] and in assay [18] was Active. Moreover, the result in assay [10] was inactive. The Imax in assay [11] came out at 98%; in assay [12] it was 52%; in assay [13], 38%; in assay [16], 107%; in assay [19] it was 58%. Besides, the IC50 (as a rule, the concentration that gives 50% inhibition) in assay [14] was greater than 100 µM. Besides, in assay [17], the Imax entry is “inactive”.
In the case of `CCn1nc(O)c(CC(N)C(=O)O)n1` (racemic), the EC50 in assay [20] was greater than 1 mM; in [21], greater than 1 mM; in assay [22], greater than 1 mM; in [6] it was greater than 1000 µM. The Ki in assay [1] was greater than 100000 nM; in assay [23] it was greater than 100 µM; in assay [2] it was 100 µM; in assay [24], greater than 100 µM; in [3], greater than 100 µM. Also, in assay [14], the IC50 is greater than 100 µM.
For the compound `CCCn1nc(O)c(CC(N)C(=O)O)n1` (racemic), in assay [21], the EC50 was greater than 1 mM. Further, the Ki in assay [1] is greater than 100000 nM; in [23], greater than 100 µM; in assay [2], greater than 100 µM; in assay [24] it was greater than 100 µM; in [3], greater than 100 µM. Also, the %max in [25] was greater than 5%. For the same compound, the IC50 in assay [14] was greater than 100 µM.
Take `CCCn1nnc(O)c1CC(N)C(=O)O` (racemic): the Ki in [1] is 3250 nM; in [23], greater than 100 µM; in assay [3], 100 µM. In addition, the %max in assay [5] is greater than 5%. In assay [6], the EC50 came to 51 µM.
`CN[C@H](CC(=O)O)C(=O)O` [N-METHYL-D-ASPARTIC ACID (NMDA)] yielded an IC50 in [14] greater than 100 µM.

These data come from ChEMBL document CHEMBL4350957, “Use of the 4-Hydroxytriazole Moiety as a Bioisosteric Tool in the Development of Ionotropic Glutamate Receptor Ligands” (J Med Chem, 2019).
